This passage reports GI50 results from patent publication US20240174603A1 (Rappta Therapeutics Oy, priority 2021, published 2024).

Structures are written as SMILES.

The term GI50 denotes the concentration that inhibits growth by half. A low value points to greater sensitivity of the cells.

The assay relates to LNCaP cells. Kind of assay: LNCaP cell viability assay (MTS). In kind it is cell-based. As to conditions: Homo sapiens, LNCaP, 48 h, LNCaP cell line. As for the experimental part: LNCaP cell line was used for the cell viability assay. LNCaP cells were plated in 96-well plates at a density of 5000 cells per well. After 24 hours of plating, the cells were treated with increasing doses of compound (e.g., compounds 1-269) ranging from 1 μM to 80 μM. Relative cell numbers were analyzed after 48 hours using 3-(4,5-dimethylthiazol-2-yl)-5-(3-carboxymethoxyphenyl)-2-(4-sulfophenyl)-2H-tetrazolium (MTS) assay (Promega) according to the manufacturer's instructions.
The cell viability data was analyzed with GraphPad Prism software. The values were log transformed and analyzed with non-linear regression (curve-fit) using log(inhibitor) vs. response-variable slope (four parameters) and constraining the bottom to equal zero. Unless otherwise indicated, the GI50 values provided in Table 113 correspond to the LNCaP cell viability assays.
With `O=S(=O)(NCc1ccccc1S(=O)(=O)N1CCCCC1)c1ccc(OC(F)(F)F)cc1` [Compound 2, N-(2-(piperidin-1-ylsulfonyl)benzyl)-4-(trifluoromethoxy)benzenesulfonamide], the GI50 was found to be 58.3 µM.
Take `O=S(=O)(NCCNS(=O)(=O)c1cc(Br)ccc1Br)c1ccc(OC(F)(F)F)cc1` [Compound 3, 2,5-dibromo-N-(2-((4-(trifluoromethoxy)phenyl)sulfonamido)ethyl)benzenesulfonamide]: halving of growth (GI50) required 24.6 µM.
The compound `CCCC(NS(=O)(=O)c1ccc(OC(F)(F)F)cc1)C(=O)N(C)C1CCCCCC1` (stereo not drawn) [Compound 4, N-cycloheptyl-N-methyl-2-((4-(trifluoromethoxy)phenyl)sulfonamido)pentanamide] showed a GI50 of 54 µM.
`CCCCC(NS(=O)(=O)c1ccc(OC(F)(F)F)cc1)C(=O)OC(C)(C)C` (stereo not drawn) [Compound 5, Tert-butyl 2-((4-(trifluoromethoxy)phenyl)sulfonamido)hexanoate] gave a GI50 of 39.5 µM.
For `COC(=O)C[C@@H](Cc1ccccc1)NS(=O)(=O)c1ccc(OC(F)(F)F)cc1` [Compound 6, Methyl (R)-4-phenyl-3-((4-(trifluoromethoxy)phenyl)sulfonamido)butanoate], it took 61.1 µM to inhibit growth by half (GI50).
As for `CC[C@H](C)[C@H](NS(=O)(=O)c1ccc(OC(F)(F)F)cc1)C(=O)OC(C)(C)C` [Compound 7, Tert-butyl ((4-(trifluoromethoxy)phenyl)sulfonyl)-L-isoleucinate], the figure is 57.9 µM; as for `O=S(=O)(NC(CC(F)(F)F)c1ccccc1)c1ccc(OC(F)(F)F)cc1` (stereo not drawn) [Compound 8, N-(3,3,3-trifluoro-1-phenylpropyl)-4-(trifluoromethoxy)benzenesulfonamide], 38.1 µM; as for `Cc1cccc(CC(CO)NS(=O)(=O)c2ccc(OC(F)(F)F)cc2)c1` (stereo not drawn) [Compound 9, N-(1-hydroxy-3-(m-tolyl)propan-2-yl)-4-(trifluoromethoxy)benzenesulfonamide], 24.1 µM.
As for `CC(C)CC(CCO)NS(=O)(=O)c1ccc(OC(F)(F)F)cc1` (stereo not drawn) [Compound 10, N-(1-hydroxy-5-methylhexan-3-yl)-4-(trifluoromethoxy)benzenesulfonamide], the figure is 5.47 µM; as for `CC(O)COc1ccccc1CNS(=O)(=O)c1ccc(OC(F)(F)F)cc1` (stereo not drawn) [Compound 11, N-(2-(2-hydroxypropoxy)benzyl)-4-(trifluoromethoxy)benzenesulfonamide], 30.9 µM.
The compound `O=S(=O)(N[C@@H](CCO)c1ccccc1)c1ccc(OC(F)(F)F)cc1` [Compound 12, (S)—N-(3-hydroxy-1-phenylpropyl)-4-(trifluoromethoxy)benzenesulfonamide] yielded a concentration for 50% growth inhibition (GI50) of 34.7 µM.
As for `CCOC(=O)C(CC1CC=CCC1)NS(=O)(=O)c1ccc(OC(F)(F)F)cc1` (stereo not drawn) [Compound 13, Ethyl 3-(cyclohex-3-en-1-yl)-2-((4-(trifluoromethoxy)phenyl)sulfonamido)propanoate], the figure is 53.5 µM.
As for `CCOC(=O)C[C@@H](NS(=O)(=O)c1ccc(OC(F)(F)F)cc1)c1ccccc1Cl` [Compound 14, Ethyl (R)-3-(2-chlorophenyl)-3-((4-(trifluoromethoxy)phenyl)sulfonamido)propanoate], the figure is 51.9 µM; as for `CCOC(=O)C(Cc1cccc(Cl)c1)NS(=O)(=O)c1ccc(OC(F)(F)F)cc1` (stereo not drawn) [Compound 15, Ethyl 3-(3-chlorophenyl)-2-((4-(trifluoromethoxy)phenyl)sulfonamido)propanoate], 49.6 µM.
The compound `CCOC(=O)C(NS(=O)(=O)c1ccc(OC(F)(F)F)cc1)c1ccc(OC)c(Br)c1` (stereo not drawn) [Compound 16, Ethyl 2-(3-bromo-4-methoxyphenyl)-2-((4-(trifluoromethoxy)phenyl)sulfonamido)acetate] displayed a GI50 of 49.7 µM.
Under `CCc1ccc(C(NS(=O)(=O)c2ccc(OC(F)(F)F)cc2)C(C)(C)C)o1` (stereo not drawn) [Compound 17, N-(1-(5-ethylfuran-2-yl)-2,2-dimethylpropyl)-4-(trifluoromethoxy)benzenesulfonamide] stands 55.6 µM; under `COc1ccc(C)cc1CC(NS(=O)(=O)c1ccc(OC(F)(F)F)cc1)C(C)C` (stereo not drawn) [Compound 18, N-(1-(2-methoxy-5-methylphenyl)-3-methylbutan-2-yl)-4-(trifluoromethoxy)benzenesulfonamide], 76.7 µM.
As for `O=S(=O)(NC(CC1CC1)c1ccccc1)c1ccc(OC(F)(F)F)cc1` (stereo not drawn) [Compound 19, N-(2-cyclopropyl-1-phenylethyl)-4-(trifluoromethoxy)benzenesulfonamide], the figure is 51.9 µM; as for `COC(c1ccccc1Cl)C(C)NS(=O)(=O)c1ccc(OC(F)(F)F)cc1` (stereo not drawn) [Compound 20, N-(1-(2-chlorophenyl)-1-methoxypropan-2-yl)-4-(trifluoromethoxy)benzenesulfonamide], 50.9 µM; as for `CC(NS(=O)(=O)c1ccc(OC(F)(F)F)cc1)c1cc(F)ccc1N1CCC(O)CC1` (stereo not drawn) [Compound 21, N-(1-(5-fluoro-2-(4-hydroxypiperidin-1-yl)phenyl)ethyl)-4-(trifluoromethoxy)benzenesulfonamide], 46.8 µM.
Under `COC(=O)CC(NS(=O)(=O)c1ccc(OC(F)(F)F)cc1)c1ccc(OC)c(Br)c1` (stereo not drawn) [Compound 22] stands 39.1 µM; under `COC(=O)C(C)C(NS(=O)(=O)c1ccc(OC(F)(F)F)cc1)c1ccccc1` (stereo not drawn) [Compound 23], 43.1 µM; under `CCOC(=O)CC(NS(=O)(=O)c1ccc(OC(F)(F)F)cc1)c1ccc(C)cc1` (stereo not drawn) [Compound 24], 44.2 µM.
In turn, `CCOC(=O)CC(NS(=O)(=O)c1ccc(OC(F)(F)F)cc1)c1ccc(OCC)cc1` (stereo not drawn) [Compound 25] displayed a GI50 of 75.6 µM.
Under `CC(C)CC(NS(=O)(=O)c1ccc(OC(F)(F)F)cc1)c1cccc(C#N)c1` (stereo not drawn) [Compound 26, N-(1-(3-cyanophenyl)-3-methylbutyl)-4-(trifluoromethoxy)benzenesulfonamide] stands 28.9 µM; under `COc1ccc(OC)c(CCCNS(=O)(=O)c2ccc(OC(F)(F)F)cc2)c1` [Compound 27, N-(3-(2,5-dimethoxyphenyl)propyl)-4-(trifluoromethoxy)benzenesulfonamide], 40.2 µM; under `CCc1ccc(C(CNS(=O)(=O)c2ccc(OC(F)(F)F)cc2)N2CCCC2)cc1` (stereo not drawn) [Compound 28, N-(2-(4-ethylphenyl)-2-(pyrrolidine-1-yl)ethyl)-4-(trifluoromethoxy)benzenesulfonamide], 55.8 µM.
Under `CCOc1ccc(Cl)cc1CCNS(=O)(=O)c1ccc(OC(F)(F)F)cc1` [Compound 29, N-(5-chloro-2-ethoxyphenethyl)-4-(trifluoromethoxy)benzenesulfonamide] stands 38.3 µM.
As for `O=S(=O)(NCc1ccccc1N1CCCC1)c1ccc(OC(F)(F)F)cc1` [Compound 30, N-(2-(pyrrolidin-1-yl)benzyl)-4-(trifluoromethoxy)benzenesulfonamide], the figure is 49.7 µM; as for `CC1CCN(C(CNS(=O)(=O)c2ccc(OC(F)(F)F)cc2)c2ccco2)CC1` (stereo not drawn) [Compound 31, N-(2-(furan-2-yl)-2-(4-methylpiperidin-1-yl)ethyl)-4-(trifluoromethoxy)benzenesulfonamide], 45.9 µM.
`COc1cc(C2(CNS(=O)(=O)c3ccc(OC(F)(F)F)cc3)CCCC2)ccc1OC(F)F` [Compound 33, N-((1-(4-(difluoromethoxy)-3-methoxyphenyl)cyclopentyl)methyl)-4-(trifluoromethoxy)benzenesulfonamide] came in with a GI50 of 73.4 µM.
Under `O=S(=O)(NC(c1ccc(F)c(C(F)(F)F)c1)C1CC1)c1ccc(OC(F)(F)F)cc1` (stereo not drawn) [Compound 34, N-(cyclopropyl(4-fluoro-3-(trifluoromethyl)phenyl)methyl)-4-(trifluoromethoxy)benzenesulfonamide] stands 40.1 µM; under `COCCC(NS(=O)(=O)c1ccc(OC(F)(F)F)cc1)c1ccc(Cl)c(Cl)c1` (stereo not drawn) [Compound 35, N-(1-(3,4-dichlorophenyl)-3-methoxypropyl)-4-(trifluoromethoxy)benzenesulfonamide], 50.9 µM; under `O=S(=O)(NC(c1cccc(C(F)(F)F)c1)C1CCCCC1)c1ccc(OC(F)(F)F)cc1` (stereo not drawn) [Compound 36, N-(cyclohexyl(3-(trifluoromethyl)phenyl)methyl)-4-(trifluoromethoxy)benzenesulfonamide], 29.1 µM.
In turn, `COC(=O)CC(NS(=O)(=O)c1ccc(OC(F)(F)F)cc1)C1CCCCC1` (stereo not drawn) [Compound 37, Methyl 3-cyclohexyl-3-((4-(trifluoromethoxy)phenyl)sulfonamido)propanoate] showed a GI50 of 60 µM.
In turn, `COC(=O)CC(NS(=O)(=O)c1ccc(OC(F)(F)F)cc1)c1cccc(Br)c1` (stereo not drawn) [Compound 38, Methyl 3-(3-bromophenyl)-3-((4-(trifluoromethoxy)phenyl)sulfonamido)propanoate] had a GI50 of 66.5 µM.
`COC(=O)C[C@H](NS(=O)(=O)c1ccc(OC(F)(F)F)cc1)c1cc(Cl)cc(Cl)c1` [Compound 39, Methyl (S)-3-(3,5-dichlorophenyl)-3-((4-(trifluoromethoxy)phenyl)sulfonamido)propanoate]: it took 35.3 µM to inhibit growth by half (GI50).
As for `COC(=O)[C@H](Cc1ccc(Cl)c(Cl)c1)NS(=O)(=O)c1ccc(OC(F)(F)F)cc1` [Compound 40, Methyl (S)-3-(3,4-dichlorophenyl)-2-((4-(trifluoromethoxy)phenyl)sulfonamido)propanoate], the figure is 57.2 µM.
As for `O=S(=O)(NC(c1cccc(Cl)c1)C1CCCC1)c1ccc(OC(F)(F)F)cc1` (stereo not drawn) [Compound 41, N-((3-chlorophenyl)(cyclopentyl)methyl)-4-(trifluoromethoxy)benzenesulfonamide], the figure is 37.3 µM.
